For eight molecules, GI50 and TGI results are on record in PubChem BioAssay (NCI).

Experiment in all cases: NCI anticancer screen, dose series, 48 h
Test [1] has as its system ACHN renal.
Test [2] concerns CCRF-CEM leukemia.
The test system of test [3] is LOX IMVI melanoma.
For test [4], the system named is NCI-H23 lung.
The subject of test [5] is NCI-H460 lung.
Test [6] relates to NCI/ADR-RES ovarian.
In test [7] the test system is SF-268 CNS.
Test [8] has as its system SF-539 CNS.
For test [9], the system named is SK-MEL-28 melanoma.
The subject of test [10] is SW-620 colon.

Values joined by “and” are separate entries in the source; they are usually repeats but may differ in a detail not shown here. Equal values may be shown once.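 All cell lines were grown in 96-well plates and treated with compound for 48 hours. Abbreviation: GI50, concentration required for 50% inhibition of growth. TGI: concentration producing complete growth inhibition.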 Where only a bound is given, the exact number is not on record here.

Turning to `Cc1ccccc1C1=C(c2cn(C)c3ccccc23)C(=O)NC1=O`, the GI50 was 7.33 µM in test [1]; 9.75 µM in test [2]; 14.9 µM in test [3]; greater than 25 µM in [4]; 14.3 µM in test [5]; 24.3 µM in test [6]. Moreover, the GI50 is greater than 25 µM in test [7], 13.7 µM in test [8], greater than 25 µM in test [9] and 12.1 µM in test [10]. Further, the TGI in test [1], in test [2], in test [3], in test [4], in [5] and in test [6] was greater than 25 µM throughout. The TGI in test [7], in [8], in test [9] and in test [10] was greater than 25 µM each time.
On to `Oc1cc(N2CC2)c(O)cc1N1CC1`, for which the GI50 was 0.219 µM in [1]; 0.556 µM in [2]; 0.322 µM in test [3]; 0.396 µM in test [4]; 0.21 µM in test [5]; 0.961 µM in [6]. In addition, the GI50 in test [7] is 0.585 µM; in [8], 0.389 µM; in test [9], 1.71 µM; in test [10], 0.372 µM. Moreover, the TGI in test [1] is 0.59 µM; in test [2] it was greater than 45 µM; in [3] it was 2.42 µM; in test [4], 1.8 µM; in test [5] it was 5.15 µM; in test [6], 7.55 µM. The TGI is 7.97 µM in test [7], 2.38 µM in test [8], 4.2 µM in test [9] and 7.37 µM in test [10].
With `N#Cc1c(NCc2ccccc2)nc(NCc2ccccc2)c(C#N)c1-c1ccc(Cl)cc1`, the GI50 in [1] is > 50 µM and 43.4 µM; in test [2] it was > 50 µM and 22.5 µM; in [3], > 50 µM and 29.7 µM; in test [4], > 50 µM and 67.1 µM; in test [5], > 50 µM and 34.4 µM; in test [6], > 50 µM and 96.6 µM. In addition, the GI50 in test [7] is > 50 µM and 25.4 µM; in test [8], > 50 µM and 29 µM; in test [9], > 50 µM and 59 µM; in test [10] it was > 50 µM and 44.1 µM. For the same molecule, the TGI in test [1] is greater than 100 µM; in test [2], > 50 µM and 49.5 µM; in [3], greater than 100 µM; in test [4], greater than 100 µM; in [5], greater than 100 µM; in test [6], greater than 100 µM. Also, the TGI was > 50 µM and 80 µM in [7]; greater than 100 µM in test [8]; greater than 100 µM in test [9]; greater than 100 µM in [10].
In the case of `CS(=O)(=O)N1CCC(n2c(=O)c(Oc3ccc(F)cc3F)cc3cnc(NC4CCOCC4)nc32)CC1`, the GI50 in [1], in [2], in [3], in [4], in test [5] and in [6] was greater than 25 µM each time. For the same molecule, the GI50 in test [7], in [8], in test [9] and in test [10] was greater than 25 µM in each case. Besides, the TGI in [1], in test [2], in test [3], in [4], in [5] and in test [6] was greater than 25 µM in each case. Moreover, the TGI in test [7], in test [8], in [9] and in [10] was greater than 25 µM each time.
For the molecule `COC(=O)c1ccc2nc(-c3cc4ccccc4n3C)n(CCCCOc3cc4c(cc3OC)C(=O)N3CCC[C@H]3C=N4)c2c1`, the GI50 was 1.17 µM in test [1]; 2.53 µM in test [2]; 0.592 µM in test [3]; 0.485 µM in test [4]; 0.561 µM in test [5]; 3.02 µM in [6]. The GI50 in [7] is 0.29 µM; in test [8], 0.881 µM; in test [9], 0.652 µM; in test [10] it was 0.389 µM. For the same molecule, the TGI in test [1] is 6.75 µM; in [2], greater than 100 µM; in test [3] it was 1.74 µM; in [4], 1.21 µM; in test [5] it was 1.55 µM; in test [6], 9.8 µM. Besides, the TGI in test [7] was 0.925 µM; in test [8], 2.43 µM; in test [9], 2.3 µM; in test [10], 1.75 µM.
For `CN1CC=C(c2cc(NC(=O)Nc3ccc(Oc4ccnc(NC(=O)C5CC5)c4)c(F)c3)cc(C(F)(F)F)c2)CC1`, the GI50 in [1] is 0.968 µM; in [2], 0.126 µM; in [3], 0.181 µM; in [4] it was 0.172 µM; in test [5], 0.194 µM; in test [6], 2.71 µM. In addition, the GI50 is 0.206 µM in test [7], 0.888 µM in test [8], 1.23 µM in test [9] and 0.196 µM in test [10]. In addition, the TGI in test [1] stood at 2.67 µM; in test [2], 0.702 µM; in test [3] it was 0.645 µM; in test [4], 0.712 µM; in [5], 0.66 µM; in [6], 13.4 µM. Besides, the TGI in test [7] was found to be 1.41 µM; in [8], 1.86 µM; in [9], 3.07 µM; in test [10] it was 0.556 µM.
Take `CS(=O)(=O)CCNCc1ccc(-c2ccc3ncnc(Nc4ccc(OCc5cccc(F)c5)c(Cl)c4)c3c2)o1`: the GI50 is 0.539 µM and 0.435 µM and 0.323 µM in [1]; > 10 µM and 2.03 µM and 1.56 µM in test [2]; 8.23 µM and 1.79 µM and 4.19 µM in [3]; > 10 µM and 7.82 µM and 10.4 µM in test [4]; > 10 µM and 4.11 µM and 8.98 µM in test [5]; 5.52 µM and 2.9 µM and 4.32 µM in [6]. The GI50 in [7] is > 10 µM and 5.18 µM and 11.6 µM; in test [8] it was > 10 µM and 9.11 µM and 7.5 µM; in test [9], > 10 µM and 4.37 µM and 3.35 µM; in [10], > 10 µM and 1.94 µM and 3.82 µM. The TGI in test [1] was > 10 µM and > 100 µM and 54.4 µM; in test [2] it was > 10 µM and 5.67 µM and 20.7 µM; in test [3], > 10 µM and 3.35 µM and 10.1 µM; in test [4], > 10 µM and > 100 µM and 31.1 µM; in [5], > 10 µM and > 29.3 µM and 48.7 µM; in test [6], > 10 µM and > 100 µM and 50.3 µM. Moreover, the TGI in [7] is > 10 µM and > 100 µM and 43.4 µM; in test [8] it was > 10 µM and 98.1 µM and 29.9 µM; in test [9] it was > 10 µM and 16.5 µM and 18.9 µM; in test [10], > 10 µM and 3.6 µM and 9.46 µM.
For `CC1CCCC(C(=O)CC2CC(=O)NC(=O)C2)C1=O` (stereo not given), the TGI in test [1], in [2], in test [3], in [4], in test [5] and in test [6] was greater than 100 µM each time. In addition, the TGI in [7], in test [8], in [9] and in test [10] was greater than 100 µM in each case.
